Measured values as given in patent publication US12577211B2, “Probenecid compounds for the treatment of inflammasome-mediated lung disease” (Bacainn Biotherapeutics, Ltd., priority 2020, dated 2026).
pIC50: −log10 of the molar value.

Legend:
[1] = target: T1, AIM2 (Mus musculus, UniProt Q91VJ1); test: AIM2 (poly dA:dT)-mediated inflammasome activation, secreted IL-1β ELISA in immortalized BMDMs; format: cell-based, murine; conditions: BT032 20, 100 μM
T1 sequence (Q91VJ1 1-354): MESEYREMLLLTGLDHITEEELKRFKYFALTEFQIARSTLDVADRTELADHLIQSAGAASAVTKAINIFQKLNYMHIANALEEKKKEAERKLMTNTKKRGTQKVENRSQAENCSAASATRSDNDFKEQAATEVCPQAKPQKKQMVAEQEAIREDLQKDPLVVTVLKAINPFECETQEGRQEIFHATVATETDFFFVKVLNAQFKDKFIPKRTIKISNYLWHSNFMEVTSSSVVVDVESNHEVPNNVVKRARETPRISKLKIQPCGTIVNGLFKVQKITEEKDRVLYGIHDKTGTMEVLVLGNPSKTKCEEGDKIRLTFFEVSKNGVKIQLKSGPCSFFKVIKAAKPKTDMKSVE

[2] = target: T2, NLRP3 inflammasome (Mus musculus, UniProt Q8R4B8); test: IL-1β secretion (ELISA) in LPS-primed iBMDMs stimulated with silica or nigericin; format: cell-based, murine; conditions: LPS 100 ng/mL primed iBMDMs; silica 250 μg/mL or nigericin 6 μM; compound 300, 150, 30, 3 μM
T2 construct: Immortalized wild-type C57BL/6 bone-marrow derived macrophages (iBMDMs); endogenous in cells; host or cells: immortalized wild-type C57BL/6 bone-marrow derived macrophages (iBMDMs), LPS-primed
T2 sequence (Q8R4B8 whole entry): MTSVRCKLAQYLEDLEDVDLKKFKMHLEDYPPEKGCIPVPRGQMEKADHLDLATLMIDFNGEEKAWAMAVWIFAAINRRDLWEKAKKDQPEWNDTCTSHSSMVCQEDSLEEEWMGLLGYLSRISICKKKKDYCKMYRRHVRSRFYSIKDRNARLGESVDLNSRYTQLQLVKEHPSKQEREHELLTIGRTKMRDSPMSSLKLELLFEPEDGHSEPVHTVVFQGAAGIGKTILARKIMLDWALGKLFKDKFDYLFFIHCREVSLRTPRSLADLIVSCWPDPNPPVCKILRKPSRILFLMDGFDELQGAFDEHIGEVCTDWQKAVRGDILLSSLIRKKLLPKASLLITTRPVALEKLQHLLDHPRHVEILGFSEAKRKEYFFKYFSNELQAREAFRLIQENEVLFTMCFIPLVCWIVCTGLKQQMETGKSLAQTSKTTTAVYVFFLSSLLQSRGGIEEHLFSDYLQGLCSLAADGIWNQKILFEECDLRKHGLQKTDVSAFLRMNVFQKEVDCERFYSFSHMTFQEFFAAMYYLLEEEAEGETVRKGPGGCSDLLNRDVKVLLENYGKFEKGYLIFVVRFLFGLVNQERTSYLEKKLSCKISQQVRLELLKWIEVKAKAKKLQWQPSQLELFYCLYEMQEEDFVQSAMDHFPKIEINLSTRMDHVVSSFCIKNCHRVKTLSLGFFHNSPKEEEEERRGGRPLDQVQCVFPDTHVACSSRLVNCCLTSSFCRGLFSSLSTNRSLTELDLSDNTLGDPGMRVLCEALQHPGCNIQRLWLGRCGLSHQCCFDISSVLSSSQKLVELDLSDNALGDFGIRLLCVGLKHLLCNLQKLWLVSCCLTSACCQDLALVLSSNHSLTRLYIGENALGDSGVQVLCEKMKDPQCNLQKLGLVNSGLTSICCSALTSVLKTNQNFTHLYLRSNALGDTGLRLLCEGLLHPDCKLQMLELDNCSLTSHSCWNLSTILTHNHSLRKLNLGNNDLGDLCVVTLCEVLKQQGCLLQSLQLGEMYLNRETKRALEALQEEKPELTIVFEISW
Protocol: In vitro stimulation of murine macrophages. Immortalized wild-type C57BL/6 bone-marrow derived macrophages (iBMDMs) were grown in DMEM supplemented with 10% heat inactivated FBS and 2 mM glutamine. iBMDMs were seeded in 96-well plates 24 hours prior incubation with lipopolysaccharide (LPS; 100 ng/mL) for 3 hours. Cells were then incubated with a control probenecid compound (probenecid dissolved in DMSO (Prob/D), probenecid dissolved in PBS (Prob/P)) or one of the probenecid analogs of the present technology (BT032, BT132, BT133, BT134, BT135, BT136, BT137, BT138, BT139, or BT140) at concentrations of 300 μM, 150 μM, 30 μM, or 3 μM 1 hour prior to stimulation with NLRP3 inflammasome activators, silica (250 μg/mL) or nigericin (6 μM). After an additional 6 hours, cell supernatants were collected and levels of IL-1β were quantified by ELISA. These experiments were run in triplicate three times.

[3] = tested on: non-canonical inflammasome; test: Non-canonical inflammasome activity (LPS (B4)), secreted IL-1β ELISA in immortalized BMDMs; format: cell-based, murine; conditions: BT032 20, 100 μM
[4] = target: T3, NLRP1 (Homo sapiens, UniProt Q9C000); test: poly I:C NLRP1 activation in primary human bronchial epithelial cells, secreted IL-1β ELISA; format: cell-based; conditions: 20, 100, 350 μM
T3 construct: Primary bronchial epithelial cells (PBEC) were obtained from bronchial brushings; endogenous in cells; host or cells: primary human bronchial epithelial cells (PBEC) from bronchial brushings
T3 sequence (Q9C000 1-1212 limits assumed): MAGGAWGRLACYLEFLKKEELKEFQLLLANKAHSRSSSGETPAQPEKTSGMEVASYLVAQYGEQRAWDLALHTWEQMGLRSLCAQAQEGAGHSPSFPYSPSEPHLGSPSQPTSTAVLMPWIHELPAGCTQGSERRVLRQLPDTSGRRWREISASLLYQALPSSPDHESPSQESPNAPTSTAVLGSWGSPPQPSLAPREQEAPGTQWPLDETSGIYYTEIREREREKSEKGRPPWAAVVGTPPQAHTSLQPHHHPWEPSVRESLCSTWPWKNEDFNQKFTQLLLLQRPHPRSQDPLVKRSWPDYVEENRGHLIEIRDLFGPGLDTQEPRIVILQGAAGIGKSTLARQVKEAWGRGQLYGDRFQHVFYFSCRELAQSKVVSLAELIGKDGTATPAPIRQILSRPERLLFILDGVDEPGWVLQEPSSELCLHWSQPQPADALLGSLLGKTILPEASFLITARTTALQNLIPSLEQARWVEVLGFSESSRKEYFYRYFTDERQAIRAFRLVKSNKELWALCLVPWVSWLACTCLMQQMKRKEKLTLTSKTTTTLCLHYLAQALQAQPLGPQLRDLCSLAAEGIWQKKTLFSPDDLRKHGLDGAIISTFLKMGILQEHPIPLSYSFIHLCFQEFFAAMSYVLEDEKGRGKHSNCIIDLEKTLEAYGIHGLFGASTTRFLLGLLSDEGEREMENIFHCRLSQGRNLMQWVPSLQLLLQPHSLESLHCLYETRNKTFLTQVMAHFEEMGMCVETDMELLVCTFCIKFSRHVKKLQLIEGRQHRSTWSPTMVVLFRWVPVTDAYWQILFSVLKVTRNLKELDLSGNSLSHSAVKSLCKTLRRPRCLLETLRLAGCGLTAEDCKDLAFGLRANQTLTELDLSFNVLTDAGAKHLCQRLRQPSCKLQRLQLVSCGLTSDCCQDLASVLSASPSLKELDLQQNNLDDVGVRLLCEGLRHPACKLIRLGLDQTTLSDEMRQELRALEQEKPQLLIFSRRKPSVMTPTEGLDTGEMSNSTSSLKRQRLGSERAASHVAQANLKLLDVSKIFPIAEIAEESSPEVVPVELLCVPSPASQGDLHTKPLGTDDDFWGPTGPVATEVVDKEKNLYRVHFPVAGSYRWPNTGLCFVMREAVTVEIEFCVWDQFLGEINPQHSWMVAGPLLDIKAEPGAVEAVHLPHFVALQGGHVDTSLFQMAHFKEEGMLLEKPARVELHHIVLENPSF
T3 sequence (Q9C000 1213-1473 limits assumed): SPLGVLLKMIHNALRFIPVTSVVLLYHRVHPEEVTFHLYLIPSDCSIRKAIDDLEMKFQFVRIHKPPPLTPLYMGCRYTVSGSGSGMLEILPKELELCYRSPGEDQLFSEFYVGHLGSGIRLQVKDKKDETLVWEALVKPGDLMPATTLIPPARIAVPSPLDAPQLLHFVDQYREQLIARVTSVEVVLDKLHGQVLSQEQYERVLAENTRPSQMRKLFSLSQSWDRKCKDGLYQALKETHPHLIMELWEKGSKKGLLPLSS
Protocol: Methods. Primary bronchial epithelial cells (PBEC) were obtained from bronchial brushings and cultured under submerged conditions on collagen-coated flasks in supplemented bronchial epithelial growth medium. PBECs were seeded at 2.5×10^5/ml cells in collagen-coated 96 well plates overnight.

[5] = target: NLRC4 (Mus musculus, UniProt Q3UP24); test: NLRC4 (Flagellin)-mediated inflammasome activation, secreted IL-1β ELISA in immortalized BMDMs; format: cell-based, murine; conditions: BT032 20, 100 μM
Sequence of NLRC4 (Q3UP24 whole entry): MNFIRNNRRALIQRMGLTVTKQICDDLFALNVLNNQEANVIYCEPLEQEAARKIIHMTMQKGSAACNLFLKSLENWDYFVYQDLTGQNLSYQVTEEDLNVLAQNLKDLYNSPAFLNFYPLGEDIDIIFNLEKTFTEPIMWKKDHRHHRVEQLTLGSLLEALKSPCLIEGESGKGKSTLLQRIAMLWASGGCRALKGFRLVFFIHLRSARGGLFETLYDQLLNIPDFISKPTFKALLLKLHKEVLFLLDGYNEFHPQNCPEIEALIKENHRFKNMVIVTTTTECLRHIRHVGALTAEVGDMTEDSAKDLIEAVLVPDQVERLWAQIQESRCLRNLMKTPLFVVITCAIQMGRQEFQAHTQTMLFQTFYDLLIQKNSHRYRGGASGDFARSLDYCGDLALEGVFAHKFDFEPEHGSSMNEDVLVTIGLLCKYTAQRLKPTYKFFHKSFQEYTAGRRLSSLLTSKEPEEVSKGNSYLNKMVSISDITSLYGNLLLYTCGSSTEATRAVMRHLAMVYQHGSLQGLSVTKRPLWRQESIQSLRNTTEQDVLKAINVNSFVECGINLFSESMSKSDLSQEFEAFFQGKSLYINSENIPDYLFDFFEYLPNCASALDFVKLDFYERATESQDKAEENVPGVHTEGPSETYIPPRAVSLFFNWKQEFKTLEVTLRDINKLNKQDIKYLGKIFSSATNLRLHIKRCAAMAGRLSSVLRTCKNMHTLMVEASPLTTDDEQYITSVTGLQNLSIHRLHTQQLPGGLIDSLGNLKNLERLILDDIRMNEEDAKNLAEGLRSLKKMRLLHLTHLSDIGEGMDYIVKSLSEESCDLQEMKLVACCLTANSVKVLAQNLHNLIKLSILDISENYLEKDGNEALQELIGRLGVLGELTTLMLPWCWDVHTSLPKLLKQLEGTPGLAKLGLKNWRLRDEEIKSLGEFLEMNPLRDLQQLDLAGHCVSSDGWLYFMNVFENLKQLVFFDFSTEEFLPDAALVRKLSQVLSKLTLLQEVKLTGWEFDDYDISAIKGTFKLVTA

[6] = tested on: HKx31 (H3N2) influenza A virus; format: in vivo, C57BL/6 mice
[7] = tested on: NLRP1; test: NLRP1 (L18-MDP)-induced inflammasome activation in immortalized BMDMs, secreted IL-1β ELISA (Example 10); format: cell-based; conditions: 20, 100, 350 μM; L18-MDP 100 μg/mL, 16 hours
[8] = tested on: NLRP1; test: NLRP1-mediated inflammasome activity, secreted IL-1β ELISA in immortalized BMDMs (L18-MDP); format: cell-based, murine; conditions: for NLRP1 (L18-MDP)-induced inflammasome activation: BT032 20, 100 μM, MCC950 5 μM
[9] = target: NLRP3 (Mus musculus, UniProt Q8R4B8); test: NLRP3-mediated inflammasome activity, secreted IL-1β ELISA in LPS-primed immortalized BMDMs (nigericin, MSU, silica)
Sequence of NLRP3 (Q8R4B8 whole entry): as the sequence (Q8R4B8 whole entry) above

[10] = tested on: ASC specks (NLRP3 inflammasome complex); test: Nigericin-induced ASC speck formation in ASC-cerulean/NLRP3 macrophages; format: cell-based; conditions: 350 μM, 60 mins before nigericin 3 μM for 90 mins

SMILES: CCCN(CCC)S(=O)(=O)c1ccc(-c2ccc(CCCC(=O)O)cc2)cc1 [BT032, 4-(4′-(N,N-dipropylsulfamoyl)-[1,1′-biphenyl]-4-yl)butanoic acid]
- AIM2 (poly dA:dT)-mediated inflammasome activation [1]: no effect
- potency in reducing IL-1β secretion compared with control probenecid compounds [2]: more potent than the control probenecid compounds
- non-canonical inflammasome activity (LPS (B4)) [3]: limited impact
- poly I:C NLRP1 activation (IL-1β secretion) [4]: inhibited poly I:C NLRP1 activation
- NLRC4 (Flagellin)-mediated inflammasome activation [5]: no effect
- survival of mice ([6]; […], survival without treatment 5 days): 7-9 days post-infection
- pulmonary inflammation and cellular infiltrates in BAL (total cells, alveolar macrophages, neutrophils, Ly6C+ macrophages, dendritic cells, MCP-1) ([6]; mouse, in vivo): reduce hyperinflammation in the airways
- NLRP1 (L18-MDP)-induced inflammasome activation (secreted IL-1β) [7]: dose-dependently inhibited
- NLRP1 (L18-MDP)-induced inflammasome activation [8]: dose-dependently inhibited
- pIC50 ([8]; L18-MDP 100 μg/mL, drug 3.9-350 μM, read-out: IC50, inhibition of NLRP1-mediated inflammasome activity): 4.52
- pIC50 [9]: 4.52
- NLRP3 (Nigericin, MSU, Silica)-induced inflammasome activation ([9]; BT032 20, 100 μM, MCC950 5 μM, secreted IL-1β): dose-dependently inhibited
- ASC specks in cells [10]: substantially reduced ASC specks

SMILES: CC(C)(O)c1coc(S(=O)(=O)NC(=O)Nc2c3c(cc4c2CCC4)CCC3)c1 [MCC950, reference compound]
- NLRP1 (L18-MDP)-induced inflammasome activation [8]: no impact upon NLRP1 activity

SMILES: CCCN(CCC)S(=O)(=O)c1ccc(-c2nc(CCCC(=O)O)cs2)cc1 [BT136, 4-(2-(4-(N,N-dipropylsulfamoyl)phenyl)thiazol-4-yl)butanoic acid]
- potency in reducing IL-1β secretion compared with control probenecid compounds [2]: more potent than the control probenecid compounds
- NLRP1 (L18-MDP)-induced inflammasome activation (secreted IL-1β) [7]: dose-dependently inhibited

SMILES: CCCN(CCC)S(=O)(=O)c1ccc(N2CCC(CCCC(=O)O)CC2)cc1 [BT135, 4-(1-(4-(N,N-dipropylsulfamoyl)-phenyl)piperidin-4-yl)butanoic acid]
- NLRP1 (L18-MDP)-induced inflammasome activation (secreted IL-1β) [7]: dose-dependently inhibited
